Test results from paper PMC3320663 (Chemmedchem, 2011).
pEC50, pIC50: −log10 of the molar value. Values joined by “and” are separate entries in the source; they are usually repeats but may differ in a detail not shown here. Identical values can stand only once. Like-named read-outs stand apart in the source and are kept apart here.

Tests used:
[1] = target: T1, TbTryS (Trypanosoma brucei, UniProt Q586P2); assay: Trypanothione synthetase; format: biochemical; conditions: for LE (ligand efficiency): calculated as −0.6×ln(IC50)/(heavy atom count)
T1 sequence (Q586P2 1-627): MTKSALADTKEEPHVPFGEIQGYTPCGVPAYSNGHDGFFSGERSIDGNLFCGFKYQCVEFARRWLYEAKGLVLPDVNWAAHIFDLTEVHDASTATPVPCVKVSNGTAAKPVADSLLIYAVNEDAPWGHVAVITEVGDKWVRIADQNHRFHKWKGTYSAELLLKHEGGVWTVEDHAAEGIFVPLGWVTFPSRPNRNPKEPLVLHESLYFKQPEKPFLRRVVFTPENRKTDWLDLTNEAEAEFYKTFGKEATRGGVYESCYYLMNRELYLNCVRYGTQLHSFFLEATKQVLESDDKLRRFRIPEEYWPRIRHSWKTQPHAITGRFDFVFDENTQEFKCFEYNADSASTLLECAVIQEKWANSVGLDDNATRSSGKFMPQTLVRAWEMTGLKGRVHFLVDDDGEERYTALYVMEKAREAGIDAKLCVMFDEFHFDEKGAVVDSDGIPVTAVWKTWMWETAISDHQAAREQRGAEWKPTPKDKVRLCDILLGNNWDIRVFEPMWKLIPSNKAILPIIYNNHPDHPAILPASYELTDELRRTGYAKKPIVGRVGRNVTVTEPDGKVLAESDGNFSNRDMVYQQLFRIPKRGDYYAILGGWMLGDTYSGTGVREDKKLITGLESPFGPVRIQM

[2] = Human cell counter-screen proliferation assay; format: cell-based; conditions: MRC5 fibroblasts
[3] = In vitro metabolic clearance assay; format: in vitro ADME, human; conditions: for metabolic stability in words: pooled human liver microsomes; for Cli (intrinsic clearance): pooled human microsomes
[4] = system: bloodstream form T. brucei; assay: Trypanosomal cell proliferation assay; format: cell-based; conditions: Trypanosoma brucei, read-out: Tb EC50
[5] = system: trypanothione levels in T. brucei parasites; conditions: of wild-type levels; 2×EC50 for 72 h; cited from earlier work
[6] = system: wild-type T. brucei cells; conditions: read-out: EC50 wild-type cell line; cited from earlier work
[7] = system: TbTryS overexpressing (OE) cell line; conditions: read-out: EC50 OE cell line; cited from earlier work
[8] = system: TbTryS single knockout (SKO) cell line; conditions: read-out: EC50 SKO cell line; cited from earlier work
[9] = system: bloodstream form T. brucei; conditions: read-out: cell potency, cited from earlier work

With `CC(C)(C)S(=O)(=O)Cc1nc(-c2cccc(Cl)c2)cs1` [Compound 8, 2-((tert-Butylsulfonyl)methyl)-4-(3-chlorophenyl)thiazole] as the molecule, how does the pIC50 ([1]; TbTryS IC50) read?
The pIC50 was 6.40 and 6.39.

What about the pEC50 [2] of the same molecule?
Its pEC50 is under 4.30.

And the “metabolic stability in words” value [3]?
The value was “reasonably metabolically stable”.

And the “Cli (intrinsic clearance)” value [3]?
The value was 0.9 mL/min/g.

What about the pEC50 [4] of the same molecule?
The pEC50 was 4.66.

Which “in vitro enzyme potency improved over the best HTS hits” value [1] does the source give for `CC(C)(C)C(=O)Cn1nc(-c2cccc(F)c2)c2ccccc21` [Compound 71, 1-(3-(3-Fluorophenyl)-1H-indazol-1-yl)-3,3-dimethylbutan-2-one] here?
Its value is over 10 fold.

And the pIC50 ([1]; TbTryS IC50)?
Its pIC50 is 7.05.

And the “LE (ligand efficiency)” value [1]?
The value was 0.42.

What about the pEC50 [2] of the same molecule?
Its pEC50 is under 4.30.

What about the “metabolic stability in words” value [3] of the same molecule?
The value was “reasonably metabolically stable”.

And the “Cli (intrinsic clearance)” value [3]?
The value was 1.6 mL/min/g.

What about the pEC50 [4] of the same molecule?
The pEC50 was 5.10.

With `O=C(Cn1nc(-c2cccc(F)c2)c2ccccc21)N1CCCCC1` [Compound 89, 2-(3-(3-Fluorophenyl)-1H-indazol-1-yl)-1-(piperidin-1-yl)ethanone] as the molecule, how does the pIC50 ([1]; TbTryS IC50) read?
Its pIC50 is 6.85.

And the pIC50 ([1]; TbTryS IC50, values in running text)?
Its pIC50 is 6.87.

And the “LE (ligand efficiency)” value [1]?
Its value is 0.38.

What about the pEC50 [2] of the same molecule?
The pEC50 was under 4.30.

And the trypanothione levels [5]?
The trypanothione levels was under 10%.

And the pEC50 [6]?
Its pEC50 is 4.69.

What about the pEC50 [7] of the same molecule?
The pEC50 was 4.35.

What about the pEC50 [4] of the same molecule?
The pEC50 was 5.29.

And the pEC50 [8]?
Its pEC50 is 5.16.

Which “in vitro enzyme potency improved over the best HTS hits” value [1] does the source give for `CN(C)CCCNC(=O)Cn1nc(-c2cccc(F)c2)c2ccccc21` [Compound 84, N-(3-(Dimethylamino)propyl)-2-(3-(3-fluorophenyl)-1H-indazol-1-yl)acetamide] here?
The value was over 10 fold.

And the “improvement in potency over the analogous piperazines” value ([1]; 83 vs 90, 84 vs 80)?
Its value is 18 fold.

And the “LE (ligand efficiency)” value [1]?
Its value is 0.39.

What about the pEC50 [2] of the same molecule?
The pEC50 was 4.70.

What about the trypanothione levels [5] of the same molecule?
Its trypanothione levels is under 10%.

What about the pEC50 [6] of the same molecule?
Its pEC50 is 5.15.

And the pEC50 [7]?
The pEC50 was 4.63.

And the pEC50 [4]?
Its pEC50 is 5.27.

What about the pEC50 [8] of the same molecule?
Its pEC50 is 5.92.

With `NCCCC(N)(C(=O)O)C(F)F` (stereo not drawn) [eflornithine] as the molecule, how does the pEC50 ([9]; drugs in clinical use) read?
The pEC50 was 4.66.

Which results are given for `O=C(Cn1nc(C(F)(F)F)c2c1CCCC2)NCc1ccc(Cl)cc1` [Compound 26, N-(4-Chlorobenzyl)-2-(3-(trifluoromethyl)-4,5,6,7-tetrahydro-1H-indazol-1-yl)acetamide]?
pIC50 ([1]; TbTryS IC50): 5.52; pEC50 [2]: < 4.30; metabolic stability in words [3]: reasonably metabolically stable; Cli (intrinsic clearance) [3]: 3.0 mL/min/g; pEC50 [4]: 4.85

With `CC1CS(=O)(=O)CCN1/N=C/c1ccc([N+](=O)[O-])o1` (stereo not drawn) [nifurtimox] as the molecule, how does the pEC50 ([9]; drugs in clinical use) read?
Its pEC50 is 5.70.

With `CC(C)(C)C(=O)Cn1nc(-c2cccnc2)c2ccccc21` [Compound 67, 1-(3-(3-Pyridyl)-1H-indazol-1-yl)-3,3-dimethylbutan-2-one] as the molecule, how does the pIC50 ([1]; TbTryS IC50) read?
The pIC50 was 5.52.

What about the “LE (ligand efficiency)” value [1] of the same molecule?
The value was 0.35.

What about the “loss in activity (heterocycle at indazole position 3)” value ([1]; indazole series, initial compound 60) of the same molecule?
Its value is 10 fold.

Which results are given for `CC(C)(C)C(=O)Cn1nnc(-c2ccccc2)n1` [Compound 14, 3,3-Dimethyl-1-(5-phenyl-2H-tetrazol-2-yl)butan-2-one]?
pIC50 ([1]; TbTryS IC50): 5.06; LE (ligand efficiency) [1]: 0.39

With `CC(C)(C)C(=O)Cn1nc(-c2ccncc2)c2ccccc21` [Compound 65, 3,3-Dimethyl-1-(3-(pyridin-4-yl)-1H-indazol-1-yl)butan-2-one] as the molecule, how does the pIC50 ([1]; TbTryS IC50) read?
The pIC50 was 6.52.

With `Cc1nn(-c2ccccc2)nc1CNS(=O)(=O)C(C)(C)C` [Compound 42, 2-Methyl-N-((5-methyl-2-phenyl-2H-1,2,3-triazol-4-yl)methyl)propane-2-sulfonamide] as the molecule, how does the pIC50 ([1]; TbTryS IC50) read?
The pIC50 was 4.43.

With `Nc1nc(N)nc(Nc2ccc([As]3SCC(CO)S3)cc2)n1` (stereo not drawn) [melarsoprol] as the molecule, how does the pEC50 ([9]; drug in clinical use) read?
The pEC50 was 8.10.
